Source: PMC2191300 (The Journal of Experimental Medicine, 1993)

Each substance was assayed against I-Ak (Mus musculus, UniProt P01910+P06343) (assay: Percent of I-Ak occupied by each eluted self-peptide). Conditions: I-Ak from thymus (cortical plus medullary epithelium) of C3H/HeJ mice; Table 1.
Chain of I-Ak (P01910 whole entry, looked up): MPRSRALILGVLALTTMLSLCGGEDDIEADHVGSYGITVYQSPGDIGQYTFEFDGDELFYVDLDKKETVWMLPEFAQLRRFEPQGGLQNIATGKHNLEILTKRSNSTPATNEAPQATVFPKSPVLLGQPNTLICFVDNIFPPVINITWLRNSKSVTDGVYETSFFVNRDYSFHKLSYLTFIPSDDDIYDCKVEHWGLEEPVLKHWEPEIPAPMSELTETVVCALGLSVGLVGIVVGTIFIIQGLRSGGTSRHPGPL
Chain of I-Ak (P06343 whole entry, looked up): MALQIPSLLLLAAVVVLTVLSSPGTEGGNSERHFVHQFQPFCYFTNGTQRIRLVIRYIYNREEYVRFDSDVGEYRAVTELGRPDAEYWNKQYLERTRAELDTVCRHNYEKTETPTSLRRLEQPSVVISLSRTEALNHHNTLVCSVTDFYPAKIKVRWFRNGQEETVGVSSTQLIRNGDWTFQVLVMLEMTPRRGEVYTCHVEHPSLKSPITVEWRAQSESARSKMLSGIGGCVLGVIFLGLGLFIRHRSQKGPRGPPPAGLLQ

Substance | Percent of MHC occupied in Thymus
a vvKKGTD_FQLNQLE [Transferrin 100-] | 0.3%
e yiLYNKGIMGEdSYPY [Cathepsin H 77-] | 0.2%
k kGTD_FQLNQLEGKKG [Transferrin 103-] | 0.2%
n serHFV_HQFQPFcyF [A~ 3-] | < 0.1%
r sYLD_AwVcEQLAT [Fce Receptor 11 298-] | < 0.1%
xPL_ALQFAELPVNKG | 0.2%
xP_IDDGGIEA | < 0.1%
xQLGA_QNEMLxPV | < 0.1%
